{"source": "patent US20040170669A1", "about": "“Feed rations and methods of feeding growing ruminants” (priority 2002, published 2004)", "key": {"[1]": {"test": "112-day feeding trial: growing beef cattle fed bermudagrass hay plus molasses-based supplements with corn gluten meal or Alimet", "type": "in vivo, Angus-Brahman crossbred cattle", "details": "for Liquid supplement refusal: molasses based supplement remaining from last feeding: one value per feeding date; for BCS change (0-112 days): body condition score; for Added gain: over control; for TDN consumed: total digestible nutrients", "description": "An experiment was conducted to study the effect of increasing quantities of methionine from corn gluten meal, an 88% free acid solution of 2-hydroxy-4-(methylthio)butanoic acid sold under the trademark Alimet® (Novus International, Inc., St. Louis, Mo.), on the performance of growing beef cattle fed bermuda grass hay supplemented with molasses-based supplements. The experiment evaluated the effects of adding corn gluten meal or Alimet® to diets of hay supplemented with molasses-based supplements fed to growing beef cattle.\nThis experiment evaluated corn gluten meal and Alimet® fed to growing beef cattle at four levels to provide 0, 2, 4, and 6 gm/day of added bypass total sulfur amino acids (TSAA) assuming a 40% bypass of Alimet®. An […] treatment was formulated to provide 8 gm/day of added bypass TSAA from Alimet®. Both TSAA sources were provided in a liquid supplement slurry containing 82% fortified molasses (fortified with ‘12% crude protein, minerals, vitamins) and 18% ground corn or corn gluten meal. Corn gluten meal replaced corn in the supplement keeping the proportion of dry ingredients in the supplement similar across TSAA sources and levels. All supplements were offered to growing cattle to provide 3.28 lb/day of total digestible nutrients (TDN). Supplements were formulated to provide adequate nitrogen in the form of rumen degradable intake protein (DIP) with 0.18 lb DIP provided for each pound of TDN. Much of the DIP in supplements was provided by urea.\nThis experiment was conducted at the Santa Fe Beef Unit located near Gainesville. Thirty-two pens (4 head/pen) of Angus-Brahman crossbred cattle (9-12 months of age) were assigned randomly within sex and breed type. The calves averaged 610 lb and calves were in excellent body condition (BCS 5.8) at the start of the trial. Each pen was assigned two steers and two heifers. These 32 pens were randomly assigned to the 8 treatments. Each pen was a two-acre pasture and most grass was grazed off at the start of the trial but warm weather allowed some grass growth during February and March. Molasses slurries were fed on two days each week (equivalent amount for 3 or 4 days at each feeding) at the equivalent daily rate. Molasses slurries were hand mixed in each pen and fed in open troughs. Alimet® was pre-weighed in the laboratory and mixed in the supplement of the assigned pen at each feeding. Bermuda grass hay was offered ad libitum in hay rings outside (no shelter) and molasses slurries were limit fed during the 112-day trial (December thru April). Hay not consumed was collected, weighed, sampled (dry matter analyzed), and removed from the pens every 6 to 8 weeks during the trial. Water and a mineral-vitamin supplement were offered ad libitum.\nSupplement consumption, hay consumption, full weight, shrunk weight (beginning and end only), height, body condition, and blood urea (2 calves/pen) were measured at 28-day intervals during the 112-day trial. Supplement ingredients were sampled twice monthly and each hay bale was weighed and sampled prior to feeding. Supplement ingredients were analyzed for dry matter, organic matter, crude protein, bypass protein, amino acids, and minerals. Hay samples were analyzed for dry matter, organic matter, crude protein, amino acids, in vitro organic matter digestibility, neutral detergent fiber, and minerals."}, "[2]": {"details": "0 to 6 month old calves, hay plus compound feed; cited from earlier work"}, "[3]": {"details": "2 gm bypass TSAA/d (Alimet 5.7 g/d)"}, "[4]": {"details": "4 gm bypass TSAA/d (Alimet 11.4 g/d)"}, "[5]": {"details": "6 gm bypass TSAA/d (Alimet 17 g/d)"}, "[6]": {"details": "8 gm bypass TSAA/d (Alimet 22.7 g/d)"}}, "note": "Marks after values point to notes of the source that are not given here.", "data": [{"smiles": "CSCCC(O)C(=O)O", "note": "(centres unmarked) [Alimet, 2-hydroxy-4-(methylthio)butanoic acid]", "values": [{"measurement": "Daily gain, 0-28 days (full wt)", "setting": "[1]; [3]", "value": 1.58, "unit": "lb/d"}, {"measurement": "Daily gain, 0-112 days (full wt)", "setting": "[1]; [3]", "value": 1.61, "unit": "lb/d"}, {"measurement": "Daily gain, 1-113 days (shrunk wt)", "setting": "[1]; [3]", "value": "1.35^bc lb/d"}, {"measurement": "Daily gain, 28-56 days (full wt)", "setting": "[1]; [3]", "value": 1.92, "unit": "lb/d"}, {"measurement": "Daily gain, 56-84 days (full wt)", "setting": "[1]; [3]", "value": 1.09, "unit": "lb/d"}, {"measurement": "Daily gain, 84-112 days (full wt)", "setting": "[1]; [3]", "value": 1.90, "unit": "lb/d"}, {"measurement": "Feed consumed, Hay", "setting": "[1]; [3]", "value": "11.23^b lb/d DM"}, {"measurement": "Feed consumed, Supplement", "setting": "[1]; [3]", "value": "4.51^a lb/d DM"}, {"measurement": "Feed consumed, Total", "setting": "[1]; [3]", "value": "15.74^b lb/d DM"}, {"measurement": "Feed efficiency, Gain/TDN", "setting": "[1]; [3]", "value": ".149^acd"}, {"measurement": "Feed efficiency, Gain/feed DM", "setting": "[1]; [3]", "value": ".087^c"}, {"measurement": "Height change (0-112 days)", "setting": "[1]; [3]", "value": 2.73, "unit": "in."}, {"measurement": "Daily gain, 0-28 days (full wt)", "setting": "[1]; [4]", "value": 1.88, "unit": "lb/d"}, {"measurement": "Daily gain, 0-112 days (full wt)", "setting": "[1]; [4]", "value": 1.53, "unit": "lb/d"}, {"measurement": "Daily gain, 1-113 days (shrunk wt)", "setting": "[1]; [4]", "value": "1.31^ab lb/d"}, {"measurement": "Daily gain, 28-56 days (full wt)", "setting": "[1]; [4]", "value": 1.46, "unit": "lb/d"}, {"measurement": "Daily gain, 56-84 days (full wt)", "setting": "[1]; [4]", "value": ".99 lb/d"}, {"measurement": "Daily gain, 84-112 days (full wt)", "setting": "[1]; [4]", "value": 1.82, "unit": "lb/d"}, {"measurement": "Feed consumed, Hay", "setting": "[1]; [4]", "value": "10.49^b lb/d DM"}, {"measurement": "Feed consumed, Supplement", "setting": "[1]; [4]", "value": "4.51^a lb/d DM"}, {"measurement": "Feed consumed, Total", "setting": "[1]; [4]", "value": "14.99^b lb/d DM"}, {"measurement": "Feed efficiency, Gain/TDN", "setting": "[1]; [4]", "value": ".149^acd"}, {"measurement": "Feed efficiency, Gain/feed DM", "setting": "[1]; [4]", "value": ".088^c"}, {"measurement": "Height change (0-112 days)", "setting": "[1]; [4]", "value": 2.45, "unit": "in."}, {"measurement": "Daily gain, 0-28 days (full wt)", "setting": "[1]; [5]", "value": 1.77, "unit": "lb/d"}, {"measurement": "Daily gain, 0-112 days (full wt)", "setting": "[1]; [5]", "value": 1.69, "unit": "lb/d"}, {"measurement": "Daily gain, 1-113 days (shrunk wt)", "setting": "[1]; [5]", "value": "1.44^bc lb/d"}, {"measurement": "Daily gain, 28-56 days (full wt)", "setting": "[1]; [5]", "value": 1.68, "unit": "lb/d"}, {"measurement": "Daily gain, 56-84 days (full wt)", "setting": "[1]; [5]", "value": 1.40, "unit": "lb/d"}, {"measurement": "Daily gain, 84-112 days (full wt)", "setting": "[1]; [5]", "value": 1.98, "unit": "lb/d"}, {"measurement": "Feed consumed, Hay", "setting": "[1]; [5]", "value": "11.04^b lb/d DM"}, {"measurement": "Feed consumed, Supplement", "setting": "[1]; [5]", "value": "4.45^a lb/d DM"}, {"measurement": "Feed consumed, Total", "setting": "[1]; [5]", "value": "15.49^b lb/d DM"}, {"measurement": "Feed efficiency, Gain/TDN", "setting": "[1]; [5]", "value": ".159^ad"}, {"measurement": "Feed efficiency, Gain/feed DM", "setting": "[1]; [5]", "value": ".094^a"}, {"measurement": "Height change (0-112 days)", "setting": "[1]; [5]", "value": 2.80, "unit": "in."}, {"measurement": "Daily gain, 0-28 days (full wt)", "setting": "[1]; [6]", "value": 1.24, "unit": "lb/d"}, {"measurement": "Daily gain, 0-112 days (full wt)", "setting": "[1]; [6]", "value": 1.52, "unit": "lb/d"}, {"measurement": "Daily gain, 1-113 days (shrunk wt)", "setting": "[1]; [6]", "value": "1.31^ab lb/d"}, {"measurement": "Daily gain, 28-56 days (full wt)", "setting": "[1]; [6]", "value": 1.49, "unit": "lb/d"}, {"measurement": "Daily gain, 56-84 days (full wt)", "setting": "[1]; [6]", "value": ".93 lb/d"}, {"measurement": "Daily gain, 84-112 days (full wt)", "setting": "[1]; [6]", "value": 2.48, "unit": "lb/d"}, {"measurement": "Feed consumed, Hay", "setting": "[1]; [6]", "value": "10.49^b lb/d DM"}, {"measurement": "Feed consumed, Supplement", "setting": "[1]; [6]", "value": "4.08^b lb/d DM"}, {"measurement": "Feed consumed, Total", "setting": "[1]; [6]", "value": "14.57^ab lb/d DM"}, {"measurement": "Feed efficiency, Gain/TDN", "setting": "[1]; [6]", "value": ".154^d"}, {"measurement": "Feed efficiency, Gain/feed DM", "setting": "[1]; [6]", "value": ".091^a"}, {"measurement": "Height change (0-112 days)", "setting": "[1]; [6]", "value": 2.79, "unit": "in."}, {"measurement": "Liquid supplement refusal: molasses based supplement remaining from last feeding", "setting": "[1]; Alimet 5.7 g/d, pen 1", "value": 25, "unit": "pounds"}, {"measurement": "Liquid supplement refusal: molasses based supplement remaining from last feeding", "setting": "[1]; Alimet 11.4 g/d, pen 8", "value": 35, "unit": "pounds"}, {"measurement": "Liquid supplement refusal: molasses based supplement remaining from last feeding", "setting": "[1]; Alimet 17 g/d, pen 5", "value": 15, "unit": "pounds"}, {"measurement": "Liquid supplement refusal: molasses based supplement remaining from last feeding", "setting": "[1]; Alimet 22.7 g/d, pen 4, feeding date 2.19", "value": 40, "unit": "pounds"}, {"measurement": "Liquid supplement refusal: molasses based supplement remaining from last feeding", "setting": "[1]; Alimet 22.7 g/d, pen 4, feeding date 12.18", "value": 20, "unit": "pounds"}, {"measurement": "Liquid supplement refusal: molasses based supplement remaining from last feeding", "setting": "[1]; Alimet 22.7 g/d, pen 4, feeding date 12.22", "value": 25, "unit": "pounds"}, {"measurement": "Liquid supplement refusal: molasses based supplement remaining from last feeding", "setting": "[1]; Alimet 22.7 g/d, pen 4, feeding date 12.26", "value": 30, "unit": "pounds"}, {"measurement": "Liquid supplement refusal: molasses based supplement remaining from last feeding", "setting": "[1]; Alimet 22.7 g/d, pen 4, feeding date 12.29", "value": 35, "unit": "pounds"}, {"measurement": "Liquid supplement refusal: molasses based supplement remaining from last feeding", "setting": "[1]; Alimet 22.7 g/d, pen F, feeding date 1.22", "value": 20, "unit": "pounds"}, {"measurement": "Liquid supplement refusal: molasses based supplement remaining from last feeding", "setting": "[1]; Alimet 22.7 g/d, pen F, feeding date 3.01", "value": 35, "unit": "pounds"}, {"measurement": "BCS change (0-112 days)", "setting": "[1]; [3]", "value": "+.14"}, {"measurement": "BCS change (0-112 days)", "setting": "[1]; [4]", "value": "+.09"}, {"measurement": "BCS change (0-112 days)", "setting": "[1]; [5]", "value": "+.18"}, {"measurement": "BCS change (0-112 days)", "setting": "[1]; [6]", "value": "+.08"}, {"measurement": "Added gain", "setting": "[1]; [3]", "value": ".17 lb/d"}, {"measurement": "Added gain", "setting": "[1]; [4]", "value": ".13 lb/d"}, {"measurement": "Added gain", "setting": "[1]; [5]", "value": ".26 lb/d"}, {"measurement": "Added gain", "setting": "[1]; [6]", "value": ".13 lb/d"}, {"measurement": "TDN consumed", "setting": "[1]; [3]", "value": "9.21^b lb/d"}, {"measurement": "TDN consumed", "setting": "[1]; [4]", "value": "8.84^b lb/d"}, {"measurement": "TDN consumed", "setting": "[1]; [5]", "value": "9.13^b lb/d"}, {"measurement": "TDN consumed", "setting": "[1]; [6]", "value": "8.56^ab lb/d"}]}, {"smiles": "CSCCC(O)C(=O)[O-].CSCCC(O)C(=O)[O-].[Ca+2]", "note": "(centres unmarked) [calcium salt of 2-hydroxy-4-(methylthio)butanoic acid]", "values": [{"measurement": "Increase of average daily weight gain over control calves", "setting": "[2]", "value": "8-10%"}]}]}
